Measurements as given in US9340493B2, “Hydroxamic acid derivatives useful as antibacterial agents” (Pfizer Inc., priority 2008, dated 2016).
Values after ≈ are worked out from the molar mass of the structure shown.

Experiments:
[1] = biological target: T1, Pseudomonas aeruginosa LpxC enzyme (Pseudomonas aeruginosa, UniProt P47205); experiment: IC50 assay, LpxC enzyme from P. aeruginosa; type: biochemical; conditions: 0.5 nM enzyme, 25° C., pH 8.0, 20 min; ** = average of 2-8 assays
T1 construct: made in house; host or cells: E. coli
T1 sequence (P47205 1-303): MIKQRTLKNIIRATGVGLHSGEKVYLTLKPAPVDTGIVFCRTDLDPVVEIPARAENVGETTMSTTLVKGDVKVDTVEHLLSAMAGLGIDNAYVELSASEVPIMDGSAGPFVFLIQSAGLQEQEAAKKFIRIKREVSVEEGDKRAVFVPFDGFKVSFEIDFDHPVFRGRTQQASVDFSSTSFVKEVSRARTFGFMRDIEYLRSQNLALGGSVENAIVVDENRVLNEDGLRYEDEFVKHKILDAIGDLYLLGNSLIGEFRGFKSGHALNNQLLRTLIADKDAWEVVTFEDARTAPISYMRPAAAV
Method in brief: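 P. aeruginosa LpxC (0.5 nM, expressed in E. coli) reacted with 0.5 uM ³H-acetyl-labelled UDP-3-O-(R-3-hydroxydecanoyl)-GlcNAc in 50 mM sodium phosphate pH 8.0 with 1 mg/ml BSA at 25 °C for 20 min. Charcoal stopped the reaction, and filtrate radioactivity was counted by scintillation after no-enzyme background subtraction.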

P. aeruginosa PAO280 = experiment: MIC determination, P. aeruginosa PAO280; type: cell-based; conditions: Pseudomonas aeruginosa, PAO280, read-out: MIC (ug/mL) P. aeruginosa PAO280
Method in brief: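 Broth dilution MIC per CLSI M7-A7/M100-S18 guidelines. Strain PAO280 lacks efflux pumps MexAB-oprM, MexXY and MexZ.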

P. aeruginosa UI-18 = experiment: MIC determination, P. aeruginosa UI-18; type: cell-based; conditions: Pseudomonas aeruginosa, UI18; wild-type; * = arithmetic mean of 2-6 MIC determinations; read-out: MIC (ug/mL) P. aeruginosa UI-18
Method in brief: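 MIC by broth dilution following CLSI M7-A7 and M100-S18 guidelines, tested against wild-type P. aeruginosa UI-18.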

[2] = system: Acinetobacter baumanii/haemolyticus; experiment: MIC determination, A. baumanii/haemolyticus; type: cell-based; conditions: Acinetobacter baumannii; multidrug-resistant clinical isolate; * = arithmetic mean of 2-6 MIC determinations; read-out: MIC (ug/mL) A. baumanii/haemolyticus
Method in brief: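 MICs were determined by CLSI broth dilution (M7-A7, M100-S18) against a multidrug-resistant clinical isolate of Acinetobacter baumanii/haemolyticus.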

Enterobacter aerogenes = experiment: MIC determination, E. aerogenes; type: cell-based; conditions: Klebsiella aerogenes; quinolone-resistant, ESBL-expressing clinical isolate; * = arithmetic mean of 2-6 MIC determinations; read-out: MIC (ug/mL) E. aerogenes
Method in brief: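 Clinical E. aerogenes isolate, quinolone-resistant and ESBL-expressing. MIC measured in vitro by dilution testing according to CLSI guidelines (M7-A7, M100-S18).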

Escherichia coli EC-1 = experiment: MIC determination, E. coli EC-1; type: cell-based; conditions: EC1, EC-1: VOGEL, * = arithmetic mean of 2-6 MIC determinations, read-out: MIC (ug/mL) E. coli EC-1
Method in brief: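 Minimum inhibitory concentration against Escherichia coli EC-1 was determined in vitro by dilution susceptibility testing under CLSI M7-A7 and M100-S18 guidelines.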

Klebsiella pneumoniae = experiment: MIC determination, K. pneumoniae; type: cell-based; conditions: ciprofloxacin-resistant, ESBL-expressing clinical isolate, * = arithmetic mean of 2-6 MIC determinations, read-out: MIC (ug/mL) K. pneumoniae
Method in brief: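 MIC determined by broth dilution per CLSI M7-A7 and M100-S18 guidelines. Strain: ciprofloxacin-resistant, ESBL-expressing clinical isolate of K. pneumoniae.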

[3] = system: Staphylococcus aureus ATCC 29213; experiment: MIC determination, S. aureus ATCC 29213; type: cell-based; conditions: ATCC29213, CLSI quality control reference strain, * = arithmetic mean of 2-6 MIC determinations, read-out: MIC (ug/mL) S. aureus ATCC 29213
Method in brief: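 MIC was measured by dilution susceptibility testing following CLSI guidelines (M7-A7; M100-S18). The test organism is the CLSI quality-control reference strain.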

Serratia marcescens = experiment: MIC determination, S. marcescens; type: cell-based; conditions: multidrug-resistant clinical isolate, * = arithmetic mean of 2-6 MIC determinations, read-out: MIC (ug/mL) S. marcescens
Method: MIC determinations: The in vitro antibacterial activity of compounds described in the Examples was evaluated by minimum inhibitory concentration (MIC) testing according to Clinical and Laboratory Standards Institute (CLSI, formerly NCCLS) guidelines. See: Clinical and Laboratory Standards Institute. Methods for Dilution Antimicrobial Susceptibility Tests for Bacteria that Grow Aerobically; Approved Standard-Seventh Edition. CLSI document M7-A7 [ISBN 1-56238-587-9]. Clinical and Laboratory Standards Institute, 940 West Valley Road, Suite 1400, Wayne, Pa. 19087-1898 USA, 2006; also Clinical and Laboratory Standards Institute. Performance Standards for Antimicrobial Susceptibility Testing; Eighteenth Informational Supplement. CLSI document M100-S18 [ISBN1-56238-653-0]. Clinical and Laboratory Standards Institute.
The following bacterial strains were used:
Serratia marcescens: Multidrug-resistant clinical isolate.

SMILES | IC50 [1] [µM] | MIC (P. aeruginosa PAO280) [µg/mL] | MIC (P. aeruginosa UI-18) [µg/mL] | MIC [2] [µg/mL] | MIC (Enterobacter aerogenes) [µg/mL] | MIC (Escherichia coli EC-1) [µg/mL] | MIC (Klebsiella pneumoniae) [µg/mL] | MIC [3] [µg/mL] | MIC (Serratia marcescens) [µg/mL]
CC[C@H](O)[C@](C)(OCc1ccc(-c2ccccc2)cc1)C(=O)NO [Example 1, (2S,3S)-2-(biphenyl-4-ylmethoxy)-N,3-dihydroxy-2-methylpentanamide] | 0.00844 | 3 (≈ 9.11 µM) | > 64 | > 64 | > 64 | > 64 | > 64 | > 64 | > 64
C[C@H](O)[C@](C)(OCc1ccc(-c2ccccc2)cc1)C(=O)NO [Example 2a, (2S,3S)-2-(biphenyl-4-ylmethoxy)-N,3-dihydroxy-2-methylbutanamide] | 0.00299 | 0.5 (≈ 1.59 µM) | 32 (≈ 101 µM) | > 64 | > 64 | > 64 | > 64 | > 64 | > 64
C[C@@H](O)[C@](C)(OCc1ccc(-c2ccccc2)cc1)C(=O)NO [Example 2b, (2S,3R)-2-(biphenyl-4-ylmethoxy)-N,3-dihydroxy-2-methylbutanamide] | 0.00435 | 0.75 (≈ 2.38 µM) | 64 (≈ 203 µM) | > 64 | > 64 | > 64 | > 64 | > 64 | > 64
COCc1cc(CNC(=O)C(C)(OCc2ccc(-c3ccccc3)cc2)C(=O)NO)no1 (stereo not drawn) [Example 85, 2-(biphenyl-4-ylmethoxy)-N-hydroxy-N′-{[5-(methoxymethyl)isoxazol-3-yl]methyl}-2-methylmalonamide] | 0.00159 | 0.125 (≈ 0.284 µM) | 8 (≈ 18.2 µM) | 64 (≈ 146 µM) | > 64 | 16 (≈ 36.4 µM) | 32 (≈ 72.8 µM) | 64 (≈ 146 µM) | 
Cc1cc(-c2ccc(COC(C)(C(=O)NO)C(=O)NCc3cc(C)on3)cc2)ccn1 (stereo not drawn) [Example 86, N-hydroxy-2-methyl-N′-[(5-methylisoxazol-3-yl)methyl]-2-{[4-(2-methylpyridin-4-yl)benzyl]oxy}malonamide] | 0.00681 | 0.25 (≈ 0.589 µM) | 16 (≈ 37.7 µM) | > 64 | > 64 | > 64 | > 64 | > 64 | 
Cc1ccnc(-c2ccc(COC(C)(C(=O)NO)C(=O)NCc3cc(C)on3)cc2)c1 (stereo not drawn) [Example 87, N-hydroxy-2-methyl-N′-[(5-methylisoxazol-3-yl)methyl]-2-{[4-(4-methylpyridin-2-yl)benzyl]oxy}malonamide] | 0.0023 | 0.25 (≈ 0.589 µM) | 32 (≈ 75.4 µM) | > 64 | > 64 | > 64 | > 64 | > 64 | 
Cc1cc(CNC(=O)C(C)(OCc2ccc(-c3ccc(F)cn3)cc2)C(=O)NO)no1 (stereo not drawn) [Example 88, 2-{[4-(5-fluoropyridin-2-yl)benzyl]oxy}-N-hydroxy-2-methyl-N′-[(5-methylisoxazol-3-yl)methyl]malonamide] | 0.00698 | 0.5 (≈ 1.17 µM) | 64 (≈ 149 µM) | > 64 | > 64 | > 64 | > 64 | > 64 | 
Cc1cccc(-c2ccc(COC(C)(C(=O)NO)C(=O)NCc3cc(C)on3)cc2)n1 (stereo not drawn) [Example 89, N-hydroxy-2-methyl-N′-[(5-methylisoxazol-3-yl)methyl]-2-{[4-(6-methylpyridin-2-yl)benzyl]oxy}malonamide] | 0.0135 | 1 (≈ 2.36 µM) | > 64 | > 64 | > 64 | > 64 | > 64 | > 64 | 
Cc1cc(CNC(=O)C(C)(OCc2ccc(-c3cnccn3)cc2)C(=O)NO)no1 (stereo not drawn) [Example 90, N-hydroxy-2-methyl-N′-[(5-methylisoxazol-3-yl)methyl]-2-[(4-pyrazin-2-ylbenzyl)oxy]malonamide] | 0.147 | 4 (≈ 9.72 µM) | > 64 | > 64 | > 64 | > 64 | > 64 | > 64 | 
